One may read the ED50 as the dose that gives a 50% effect, or the effect in half of the subjects.

Assay [1] has as its system Rattus norvegicus. The experiment in a line: Inhibition of rat passive cutaneous anaphylaxis following i.p. administration. The format is functional. Particulars: ip.
The test system of assay [2] is Rattus norvegicus. Nature of the assay: Inhibition of rat passive cutaneous anaphylaxis following p.o. administration. Particulars: po.
Assay [3] has as its system Rattus norvegicus. The experiment in a line: Inhibition of rat passive cutaneous anaphylaxis following p.o. administration; Not active.

The source made the active and inactive calls. No cut-off for these calls is given here. Where only a bound is given, the exact number is not on record here.

For `CN(C)c1cccc(NC(=O)c2nnn[n-]2)c1C#N.[Na+]`, the 50% effective dose (ED50) in the assay on Rattus norvegicus [1] was determined as 2 mg/kg; in the assay on Rattus norvegicus [2], 1.7 mg/kg.

`CN1CCN(c2cccc(NC(=O)c3nn[nH]n3)c2C(N)=O)CC1`: the ED50 with Rattus norvegicus [1] came to 0.01 mg/kg; in the assay with Rattus norvegicus [2], 2.3 mg/kg.

For the compound `N#Cc1ccccc1NC(=O)c1nnn[n-]1.[Na+]`, the values for the ED50 in the assay with Rattus norvegicus [1] and with Rattus norvegicus [2] were 0.5 mg/kg and 10 mg/kg, respectively.

With `N#Cc1c(NC(=O)c2nnn[n-]2)cccc1N1CCCCC1.[Na+]`, the ED50 in the assay on Rattus norvegicus [1] stood at 0.4 mg/kg; in the assay on Rattus norvegicus [2], 7 mg/kg.

`O=C([O-])c1cc(=O)c2c(OCC(O)COc3cccc4oc(C(=O)[O-])cc(=O)c34)cccc2o1.[Na+].[Na+]` [CROMOLYN SODIUM] showed an ED50 in the assay on Rattus norvegicus [1] of 8 mg/kg. Further, the ED50 result with Rattus norvegicus [3] is “inactive”.

As for `CCOC(=O)C(=O)Nc1cc(C#N)cc(NC(=O)c2nn[nH]n2)c1`, the 50% effect level in the assay on Rattus norvegicus [1] (ED50) was put at a dose of 0.2 mg/kg.

Turning to `CN1CCN(c2cccc(NC(=O)c3nn[nH]n3)c2C#N)CC1`, the ED50 in the assay with Rattus norvegicus [1] is 0.02 mg/kg; in the assay with Rattus norvegicus [2], 0.2 mg/kg.

`N#Cc1cc(NC(=O)c2nnn[n-]2)c(Cl)c(NC(=O)c2nnn[n-]2)c1.[Na+].[Na+]` came in with an ED50 in the assay with Rattus norvegicus [1] of 0.3 mg/kg.

Consider `O=C(Nc1ccccn1)c1nnn[n-]1.[Na+]`, for which the median effective dose (ED50) in the assay on Rattus norvegicus [1] came out at 0.31 mg/kg; in the assay on Rattus norvegicus [2], 0.68 mg/kg.

For `COc1cccc(NC(=O)c2nn[nH]n2)c1C(N)=O`, the figures for the ED50 in the assay on Rattus norvegicus [1] and in the assay on Rattus norvegicus [2] were 0.1 mg/kg and 0.2 mg/kg, respectively.

Turning to `NC(=O)c1c(NC(=O)c2nnn[n-]2)cccc1N1CCCCC1.[Na+]`, the values for the ED50 in the assay with Rattus norvegicus [1] and in the assay with Rattus norvegicus [2] were 0.8 mg/kg and 46 mg/kg, respectively.

Take `O=C(Nc1cc(Cl)cc(NC(=O)c2nnn[n-]2)n1)c1nnn[n-]1.[Na+].[Na+]`: the median effective dose (ED50) with Rattus norvegicus [1] turned out to be 0.2 mg/kg; in the assay with Rattus norvegicus [2], 2 mg/kg.

Take `CCNc1cccc(NC(=O)c2nnn[n-]2)c1C#N.[Na+]`: the median effective dose (ED50) amounted to 1.1 mg/kg in the assay with Rattus norvegicus [1] and 2.6 mg/kg with Rattus norvegicus [2].

For the compound `NC(=O)c1cc(NC(=O)c2nnn[n-]2)cc(NC(=O)c2nnn[n-]2)c1.[Na+].[Na+]`, the results for the ED50 in the assay on Rattus norvegicus [1] and with Rattus norvegicus [2] were 0.02 mg/kg and above 10 mg/kg, respectively.

For `O=C(Nc1cc(C(F)(F)F)cc(NC(=O)c2nnn[n-]2)c1Cl)c1nnn[n-]1.[Na+].[Na+]`, the 50% effect level in the assay on Rattus norvegicus [1] (ED50) was put at a dose of 1.6 mg/kg.

On to `CN(C)c1cccc(NC(=O)c2nnn[n-]2)c1C(N)=O.[Na+]`, for which the median effective dose (ED50) in the assay with Rattus norvegicus [1] came to 0.9 mg/kg; with Rattus norvegicus [2], 34 mg/kg.

Regarding `O=C(Nc1cccc(NC(=O)c2nnn[n-]2)n1)c1nnn[n-]1.[Na+].[Na+]`, the ED50 in the assay with Rattus norvegicus [1] was determined as 0.02 mg/kg; with Rattus norvegicus [2] it was 0.1 mg/kg.

Turning to `N#Cc1cc(NC(=O)c2nnn[n-]2)cc(NC(=O)c2nnn[n-]2)c1.[Na+].[Na+]`, the ED50 with Rattus norvegicus [1] stood at 0.04 mg/kg; in the assay on Rattus norvegicus [2], 1 mg/kg.

`N#Cc1c(NC(=O)c2nn[nH]n2)cccc1N1CCOCC1`: the median effective dose (ED50) with Rattus norvegicus [1] is 0.5 mg/kg; in the assay on Rattus norvegicus [2], 10 mg/kg.

In the case of `NC(=O)c1c(NC(=O)c2nnn[n-]2)cccc1N1CCOCC1.[Na+]`, the ED50 with Rattus norvegicus [1] came out at 0.2 mg/kg.
